Measured values as given in ChEMBL document CHEMBL1121997, “2-beta-D-Ribofuranosylthiazole-4-carboxamide, a novel potential antitumor agent for lung tumors and metastases” (1982).

Assays:
Type in all cases: functional
Mus musculus [1] = test: Average body weight in grams on day 5 minus average body weight on day 1 at the dose of 100 mg/kg in experiment 1
Mus musculus [2] = test: Number of survivors out of 10 mice after 60 days infected with lewis lung carcinoma at the dose of 50 mg/kg in experiment 3
Mus musculus [3] = test: Average body weight in grams on day 5 minus average body weight on day 1 at the dose of 25 mg/kg in experiment 4
Mus musculus [4] = test: Average body weight in grams on day 5 minus average body weight on day 1 at the dose of 800 mg/kg in experiment 2
Mus musculus [5] = test: Average body weight in grams on day 5 minus average body weight on day 1 at the dose of 800 mg/kg in experiment 1
Mus musculus [6] = test: Number of survivors out of 10 mice after 60 days infected with lewis lung carcinoma at the dose of 100 mg/kg in experiment 2
Mus musculus [7] = test: Average body weight in grams on day 5 minus average body weight on day 1 at the dose of 1.56 mg/kg in experiment 4
Mus musculus [8] = test: Number of survivors out of 10 mice after 60 days infected with lewis lung carcinoma at the dose of 800 mg/kg in experiment 2
Mus musculus [9] = test: Number of survivors out of 10 mice after 60 days infected with lewis lung carcinoma at the dose of 400 mg/kg in experiment 1
Mus musculus [10] = test: Average body weight in grams on day 5 minus average body weight on day 1 at the dose of 6.25 mg/kg in experiment 4
Mus musculus [11] = test: Effect of compound on life span of mice inoculated intravenously with lewis lung carcinoma at the dose of 50 mg/kg in experiment 3; conditions: route intravenous
Mus musculus [12] = test: Number of survivors out of 10 mice after 60 days infected with lewis lung carcinoma at the dose of 400 mg/kg in experiment 2
Mus musculus [13] = test: Average body weight in grams on day 5 minus average body weight on day 1 at the dose of 200 mg/kg in experiment 2
Mus musculus [14] = test: Number of survivors out of 10 mice after 60 days infected with lewis lung carcinoma at the dose of 25 mg/kg in experiment 3
Mus musculus [15] = test: Effect of compound on life span of mice inoculated intravenously with lewis lung carcinoma at the dose of 25 mg/kg in experiment 4; conditions: route intravenous
Mus musculus [16] = test: Number of survivors out of 10 mice after 60 days infected with lewis lung carcinoma at the dose of 0.78 mg/kg in experiment 4
Mus musculus [17] = test: Effect of compound on life span of mice inoculated intravenously with lewis lung carcinoma at the dose of 400 mg/kg in experiment 3; conditions: route intravenous
Mus musculus [18] = test: Effect of compound on life span of mice inoculated intravenously with lewis lung carcinoma at the dose of 800 mg/kg in experiment 2; conditions: route intravenous
Mus musculus [19] = test: Number of survivors out of 10 mice after 60 days infected with lewis lung carcinoma at the dose of 50 mg/kg in experiment 2
Mus musculus [20] = test: Average body weight in grams on day 5 minus average body weight on day 1 at the dose of 200 mg/kg in experiment 3
Mus musculus [21] = test: Effect of compound on life span of mice inoculated intravenously with lewis lung carcinoma at the dose of 0.78 mg/kg in experiment 4; conditions: route intravenous
Mus musculus [22] = test: Number of survivors out of 10 mice after 60 days infected with lewis lung carcinoma at the dose of 800 mg/kg in experiment 3
Mus musculus [23] = test: Effect of compound on life span of mice inoculated intravenously with lewis lung carcinoma at the dose of 3.12 mg/kg in experiment 4; conditions: route intravenous
Mus musculus [24] = test: Average body weight in grams on day 5 minus average body weight on day 1 at the dose of 25 mg/kg in experiment 1
Mus musculus [25] = test: Average body weight in grams on day 5 minus average body weight on day 1 at the dose of 12.5 mg/kg in experiment 4
Mus musculus [26] = test: Number of survivors out of 10 mice after 60 days infected with lewis lung carcinoma at the dose of 3.12 mg/kg in experiment 4
Mus musculus [27] = test: Number of survivors out of 10 mice after 60 days infected with lewis lung carcinoma at the dose of 100 mg/kg in experiment 3
Mus musculus [28] = test: Number of survivors out of 10 mice after 60 days infected with lewis lung carcinoma at the dose of 12.5 mg/kg in experiment 4
Mus musculus [29] = test: Average body weight in grams on day 5 minus average body weight on day 1 at the dose of 400 mg/kg in experiment 3
Mus musculus [30] = test: Effect of compound on life span of mice inoculated intravenously with lewis lung carcinoma at the dose of 400 mg/kg in experiment 1; conditions: route intravenous
Mus musculus [31] = test: Number of survivors out of 10 mice after 60 days infected with lewis lung carcinoma at the dose of 25 mg/kg in experiment 2
Mus musculus [32] = test: Average body weight in grams on day 5 minus average body weight on day 1 at the dose of 50 mg/kg in experiment 2
Mus musculus [33] = test: Average body weight in grams on day 5 minus average body weight on day 1 at the dose of 0.78 mg/kg in experiment 4
Mus musculus [34] = test: Average body weight in grams on day 5 minus average body weight on day 1 at the dose of 400 mg/kg in experiment 2
Mus musculus [35] = test: Number of survivors out of 10 mice after 60 days infected with lewis lung carcinoma at the dose of 400 mg/kg in experiment 3
Mus musculus [36] = test: Effect of compound on life span of mice inoculated intravenously with lewis lung carcinoma at the dose of 6.25 mg/kg in experiment 4; conditions: route intravenous
Mus musculus [37] = test: Number of survivors out of 10 mice after 60 days infected with lewis lung carcinoma at the dose of 1.56 mg/kg in experiment 4
Mus musculus [38] = test: Number of survivors out of 10 mice after 60 days infected with lewis lung carcinoma at the dose of 25 mg/kg in experiment 4
Mus musculus [39] = test: Effect of compound on life span of mice inoculated intravenously with lewis lung carcinoma at the dose of 200 mg/kg in experiment 3; conditions: route intravenous
Mus musculus [40] = test: Average body weight in grams on day 5 minus average body weight on day 1 at the dose of 200 mg/kg in experiment 1
Mus musculus [41] = test: Effect of compound on life span of mice inoculated intravenously with lewis lung carcinoma at the dose of 50 mg/kg in experiment 2; conditions: route intravenous
Mus musculus [42] = test: Average body weight in grams on day 5 minus average body weight on day 1 at the dose of 50 mg/kg in experiment 1
Mus musculus [43] = test: Effect of compound on life span of mice inoculated intravenously with lewis lung carcinoma at the dose of 800 mg/kg in experiment 3; conditions: route intravenous
Mus musculus [44] = test: Number of survivors out of 10 mice after 60 days infected with lewis lung carcinoma at the dose of 200 mg/kg in experiment 1
Mus musculus [45] = test: Average body weight in grams on day 5 minus average body weight on day 1 at the dose of 100 mg/kg in experiment 3
Mus musculus [46] = test: Average body weight in grams on day 5 minus average body weight on day 1 at the dose of 50 mg/kg in experiment 3
Mus musculus [47] = test: Average body weight in grams on day 5 minus average body weight on day 1 at the dose of 3.12 mg/kg in experiment 4
Mus musculus [48] = test: Number of survivors out of 10 mice after 60 days infected with lewis lung carcinoma at the dose of 6.25 mg/kg in experiment 4
Mus musculus [49] = test: Number of survivors out of 10 mice after 60 days infected with lewis lung carcinoma at the dose of 50 mg/kg in experiment 1
Mus musculus [50] = test: Average body weight in grams on day 5 minus average body weight on day 1 at the dose of 800 mg/kg in experiment 3
Mus musculus [51] = test: Effect of compound on life span of mice inoculated intravenously with lewis lung carcinoma at the dose of 12.5 mg/kg in experiment 4; conditions: route intravenous
Mus musculus [52] = test: Average body weight in grams on day 5 minus average body weight on day 1 at the dose of 400 mg/kg in experiment 1
Mus musculus [53] = test: Number of survivors out of 10 mice after 60 days infected with lewis lung carcinoma at the dose of 25 mg/kg in experiment 1
Mus musculus [54] = test: Effect of compound on life span of mice inoculated intravenously with lewis lung carcinoma at the dose of 25 mg/kg in experiment 3; conditions: route intravenous
Mus musculus [55] = test: Effect of compound on life span of mice inoculated intravenously with lewis lung carcinoma at the dose of 100 mg/kg in experiment 2; conditions: route intravenous
Mus musculus [56] = test: Number of survivors out of 10 mice after 60 days infected with lewis lung carcinoma at the dose of 800 mg/kg in experiment 1
Mus musculus [57] = test: Number of survivors out of 10 mice after 60 days infected with lewis lung carcinoma at the dose of 100 mg/kg in experiment 1
Mus musculus [58] = test: Average body weight in grams on day 5 minus average body weight on day 1 at the dose of 25 mg/kg in experiment 3
Mus musculus [59] = test: Number of survivors out of 10 mice after 60 days infected with lewis lung carcinoma at the dose of 200 mg/kg in experiment 3
Mus musculus [60] = test: Effect of compound on life span of mice inoculated intravenously with lewis lung carcinoma at the dose of 800 mg/kg in experiment 1; conditions: route intravenous
Mus musculus [61] = test: Effect of compound on life span of mice inoculated intravenously with lewis lung carcinoma at the dose of 100 mg/kg in experiment 1; conditions: route intravenous
Mus musculus [62] = test: Number of survivors out of 10 mice after 60 days infected with lewis lung carcinoma at the dose of 200 mg/kg in experiment 2
Mus musculus [63] = test: Average body weight in grams on day 5 minus average body weight on day 1 at the dose of 25 mg/kg in experiment 2
Mus musculus [64] = test: Average body weight in grams on day 5 minus average body weight on day 1 at the dose of 100 mg/kg in experiment 2
Mus musculus [65] = test: Effect of compound on life span of mice inoculated intravenously with lewis lung carcinoma at the dose of 1.56 mg/kg in experiment 4; conditions: route intravenous

NC(=O)c1csc([C@@H]2O[C@H](CO)[C@@H](O)[C@H]2O)n1 [TIAZOFURIN]
Weight change (Mus musculus [1]): 1.3 g
Survivors (Mus musculus [2]): 9
Weight change (Mus musculus [3]): 1.5 g
Weight change (Mus musculus [4]): -2.1 g
Weight change (Mus musculus [5]): 1.3 g
Survivors (Mus musculus [6]): 9
Weight change (Mus musculus [7]): 1.7 g
Survivors (Mus musculus [8]): 1
Survivors (Mus musculus [9]): 7
Weight change (Mus musculus [10]): 2.3 g
Median life span (Mus musculus [11]): 55 days
Survivors (Mus musculus [12]): 10
Weight change (Mus musculus [13]): 0.7 g
Survivors (Mus musculus [14]): 7
Median life span (Mus musculus [15]): 7 days
Survivors (Mus musculus [16]): 0
Median life span (Mus musculus [17]): 20 days
Median life span (Mus musculus [18]): 8.5 days
Survivors (Mus musculus [19]): 9
Weight change (Mus musculus [20]): 0.7 g
Median life span (Mus musculus [21]): 20 days
Survivors (Mus musculus [22]): 0
Median life span (Mus musculus [23]): 22.8 days
Weight change (Mus musculus [24]): 1.2 g
Weight change (Mus musculus [25]): 1.9 g
Survivors (Mus musculus [26]): 0
Survivors (Mus musculus [27]): 10
Survivors (Mus musculus [28]): 7
Weight change (Mus musculus [29]): 0.5 g
Median life span (Mus musculus [30]): 9.5 days
Survivors (Mus musculus [31]): 10
Weight change (Mus musculus [32]): 1.6 g
Weight change (Mus musculus [33]): 2 g
Weight change (Mus musculus [34]): 0.4 g
Survivors (Mus musculus [35]): 6
Median life span (Mus musculus [36]): 25.3 days
Survivors (Mus musculus [37]): 0
Survivors (Mus musculus [38]): 9
Median life span (Mus musculus [39]): 16 days
Weight change (Mus musculus [40]): 1.3 g
Median life span (Mus musculus [41]): 47 days
Weight change (Mus musculus [42]): 2.2 g
Median life span (Mus musculus [43]): 11.3 days
Survivors (Mus musculus [44]): 10
Weight change (Mus musculus [45]): 0.9 g
Weight change (Mus musculus [46]): 1.2 g
Weight change (Mus musculus [47]): 1.8 g
Survivors (Mus musculus [48]): 0
Survivors (Mus musculus [49]): 10
Weight change (Mus musculus [50]): -0.8 g
Median life span (Mus musculus [51]): 39.5 days
Weight change (Mus musculus [52]): 1.2 g
Survivors (Mus musculus [53]): 10
Median life span (Mus musculus [54]): 47 days
Median life span (Mus musculus [55]): 46 days
Survivors (Mus musculus [56]): 6
Survivors (Mus musculus [57]): 9
Weight change (Mus musculus [58]): 1.1 g
Survivors (Mus musculus [59]): 8
Median life span (Mus musculus [60]): 11.3 days
Median life span (Mus musculus [61]): 17 days
Survivors (Mus musculus [62]): 10
Weight change (Mus musculus [63]): 1 g
Weight change (Mus musculus [64]): 1.3 g
Median life span (Mus musculus [65]): 23 days
